# Laboratory results published in PMC12627232 (MedComm, 2025).
# How the values were obtained:
# [1] = system: immune cells of MC38 syngeneic model; test: Flow cytometry of tumor-infiltrating and spleen immune cells, MC38 model; format: in vivo, C57BL/6J mice
# Protocol: After 14 days, the tumors and spleens were split, and cells were isolated to analyze the change in cancer immunity. For TILs, the tumors were incubated with the tumor digestion fluid (collagenase and hyaluronic acid included) and then filtered with a 200‐gauge mesh and centrifuged (100×g, 1 min). The supernatant was centrifuged (400×g, 5 min) and precipitated cells were purified by 40% percoll solution followed by RBC lysis and washing. For splenocytes, the spleen was passed through a 200‐gauge mesh, and splenocytes were collected after RBC lysis and washing.
# The prepared cell suspensions were incubated with rat serum at room temperature for 30 min to block the FC‐receptor and incubated with fluorescent antibodies at 4°C for 1 h. For Foxp3 staining, Foxp3/Transcription Factor Staining Buffer Set (eBioscience; #00‐5523‐00) was used. For intracellular cytokines staining, cells were pre‐stimulated with 1 µg/mL ionomycin (Beyotime; #S1672), 50 ng/mL PMA (Sigma; #P1585) and Brefeldin A (BioLegend; #420601) for 4 h. Flow cytometry was conducted with FACS Celesta (BD Biosciences, USA) and analyzed with FlowJo software.
# B16F10 syngeneic model = test: B16F10 syngeneic model; format: in vivo; settings: C57BL/6J mice, HDAC inhibitors by oral gavage, anti-PD-L1 intraperitoneal, 7-day treatment
# Protocol: With the approval of the ethics committee of Shandong University, C57BL/6J mice were purchased from Charles River and fed in SPF conditions at the Model Animal Research Centre of Shandong University. To establish the B16F10 syngeneic model, cells in logarithmic growth phase were trypsinized with 0.25% trypsin, resuspended in sterile PBS, and adjusted to 1 × 10^6 cells/100 µL. The cell suspension (100 µL) was subcutaneously injected into the left axilla. When tumors reached to certain volume, mice were randomized (n = 5/group) and treated with Chidamide, LBH‐589, or SDFZ‐8 by oral gavage and intraperitoneal injection of anti‐PD‐L1. Tumor growth curves were plotted over a 7‐day treatment cycle. All procedures complied with AAALAC International guidelines for humane endpoint criteria.
# HDAC8 = biological target: T1, HDAC8 (Homo sapiens, UniProt Q9BY41); test: HDACs enzymatic assay HDAC8; format: biochemical
# T1 construct: purchased BPS BIOSCIENCE Inc 50008
# Protocol: (§1) HDACs enzymatic assays were conducted according to our previous work. […] Substrates (Boc‐Lys(acetyl)‐AMC for HeLa nuclear extract, Ac‐Leu‐Gly‐Lys (Tfa)‐AMC for HDAC4, HDAC5, HDAC6, HDAC7, HDAC9, HDAC10, and HDAC11, Boc‐Lys(triflouroacetyl)‐AMC for HDAC8 and Ac‐Leu‐Gly‐Lys(acetyl)‐AMC for HDAC1, HDAC2, HDAC3) were added to the mixture. The blank group was set to no enzyme or drug but contains substrates and the control group was set to no drug but contains substrates and enzymes to each 96‐well plate. After 30 min of incubation at 37°C, the mixture was terminated with 1 mg/mL trypsin and 3 µM TSA. After another 30 min, the fluorescence intensity was measured using a Varioskan plate reader at 360/460 nm. […] The inhibition curves and IC50 values were simulated and calculated using the log(inhibitor) versus response (three parameters) mode in GraphPad Prism software.
# MDA-MB-231 cells = test: EdU assay; format: cell-based, human; settings: MDA-MB-231, 2 µM, 24 h
# Protocol: The EdU assay is performed by BeyoClick EdU kit. MDA‐MB‐231 cells were cultured in a 6‐well plate overnight. […] Following labeling, cells are fixed with 4% PFA for 15 min, washed three times with wash buffer, and permeabilized using 0.3% Triton X‐100 for 15 min. After another wash, endogenous peroxidases are blocked for 20 min. For detection, a click reaction mix (containing Biotin Azide, CuSO4, and click additive) is added and incubated for 30 min. After washing, streptavidin–HRP is applied and reacted for 30 min, followed by 5 min DAB substrate incubation. Finally, cells are washed, optionally counterstained, and imaged under a microscope.
# MDA-MB-231 xenograft = MDA-MB-231 xenograft model; format: in vivo, BALB/c-nu mice
# Protocol: BALB/c‐nu mice were obtained from Pengyue Co. Ltd. (Jinan, China) and were fed in laminar flow cabinets under specific pathogen‐free (SPF) conditions. With the approval of ethics committee of Shandong University, the animal experiments were conducted. To establish the MDA‐MB‐231 xenograft model, BALB/c‐nu mice (3–4 weeks old and 15–18 g body weight, male) were selected and injected subcutaneously into the armpits with 1.2 × 10^7 MDA‐MB‐231 cells. […] Body weight and tumor size were measured every 3 days during the 22‐day treatment.
# HDAC11 = biological target: T2, HDAC11 (Homo sapiens, UniProt Q96DB2); test: HDACs enzymatic assay HDAC11; format: biochemical; settings: Class IV
# T2 construct: purchased BPS BIOSCIENCE Inc 50011
# Protocol: as §1
# MC38 syngeneic model = test: MC38 syngeneic model; format: in vivo
# Protocol: C57BL/6J mice were obtained from HFK Bioscience (Beijing, China) and fed in laminar flow cabinets under SPF conditions. With the approval of the ethics committee of Shandong University, the animal experiments were conducted. […]. By the time tumors reached certain volumes, SDFZ‐8 treatment (SDFZ‐8 in PBS solution containing 5% DMSO, 60 mg/kg, qd, i.g.) was started, with five animals per treatment group. Body weight and tumor size were measured every day during the 14‐day treatment.
# HDAC10 = biological target: T3, HDAC10 (Homo sapiens, UniProt Q969S8); test: HDACs enzymatic assay HDAC10; format: biochemical; settings: Class IIb
# T3 construct: purchased BPS BIOSCIENCE Inc 50010
# Protocol: as §1
# T1 sequence (Q9BY41 whole entry): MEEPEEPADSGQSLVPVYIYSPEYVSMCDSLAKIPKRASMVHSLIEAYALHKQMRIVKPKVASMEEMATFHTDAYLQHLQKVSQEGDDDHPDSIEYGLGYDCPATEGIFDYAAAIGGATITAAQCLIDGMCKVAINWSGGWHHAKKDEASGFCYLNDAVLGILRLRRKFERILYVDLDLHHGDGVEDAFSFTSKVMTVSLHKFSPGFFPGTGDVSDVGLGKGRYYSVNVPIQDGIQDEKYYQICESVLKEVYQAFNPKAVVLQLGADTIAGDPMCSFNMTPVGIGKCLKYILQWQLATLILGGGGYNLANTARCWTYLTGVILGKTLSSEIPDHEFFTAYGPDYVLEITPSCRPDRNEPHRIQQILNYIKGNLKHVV
# T2 sequence (Q96DB2 whole entry): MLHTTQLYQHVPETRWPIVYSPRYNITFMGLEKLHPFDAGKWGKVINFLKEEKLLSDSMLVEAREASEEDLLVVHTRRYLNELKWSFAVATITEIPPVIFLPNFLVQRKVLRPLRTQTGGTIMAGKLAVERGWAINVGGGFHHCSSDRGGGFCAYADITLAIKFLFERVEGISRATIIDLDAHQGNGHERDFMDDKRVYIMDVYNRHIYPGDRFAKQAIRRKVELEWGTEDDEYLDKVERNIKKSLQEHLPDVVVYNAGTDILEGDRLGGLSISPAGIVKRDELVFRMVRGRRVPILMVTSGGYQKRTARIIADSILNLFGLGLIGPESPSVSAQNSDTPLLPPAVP
# T3 sequence (Q969S8 whole entry): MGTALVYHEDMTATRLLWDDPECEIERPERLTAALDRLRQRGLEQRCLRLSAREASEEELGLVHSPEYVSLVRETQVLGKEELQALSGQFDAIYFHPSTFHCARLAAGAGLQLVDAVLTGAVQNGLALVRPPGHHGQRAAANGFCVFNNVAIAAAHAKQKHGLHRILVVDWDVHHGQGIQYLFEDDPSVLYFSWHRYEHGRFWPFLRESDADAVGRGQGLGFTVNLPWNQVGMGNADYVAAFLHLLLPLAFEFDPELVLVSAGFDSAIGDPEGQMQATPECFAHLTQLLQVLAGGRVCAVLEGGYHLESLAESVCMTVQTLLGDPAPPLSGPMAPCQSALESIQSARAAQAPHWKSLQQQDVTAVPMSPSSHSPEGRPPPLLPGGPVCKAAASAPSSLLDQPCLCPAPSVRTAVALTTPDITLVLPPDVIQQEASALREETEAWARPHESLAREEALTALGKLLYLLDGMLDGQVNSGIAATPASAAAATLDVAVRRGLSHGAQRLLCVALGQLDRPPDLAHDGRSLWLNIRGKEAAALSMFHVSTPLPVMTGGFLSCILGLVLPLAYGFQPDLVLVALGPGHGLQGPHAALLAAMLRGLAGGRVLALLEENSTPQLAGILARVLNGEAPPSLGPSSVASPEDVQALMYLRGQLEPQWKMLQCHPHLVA
structure (smiles),measurement,setting,value
O=C(CCCCCCNC(=O)c1cc(OCCc2ccccc2)c2ccccc2n1)NO [SDFZ-8],PD-1 expression in tumor-infiltrating CD4+ T cells and CD8+ T cells,[1],did not affect
same,PD-1 expression in tumor-infiltrating NK cells,[1],downregulated
same,PD-L1 expression in tumor-infiltrating immune cells (DCs and macrophages),[1],upregulation
same,surface expression of MHC class II in DCs and macrophages,[1],significantly increased
same,tumor-infiltrating lymphocytes (TILs),[1]; CD4+ and CD8+ T cells,more significant increase
same,M2 polarization of TAMs,[1]; CD206 marker,suppressed
same,M1 polarization of TAMs,[1]; iNOS marker,robustly promoted
same,PD-L1 and PD-1 expression in various immune cells in the spleen,[1]; spleen,significantly decreased
same,"proportion of CD4+ T cells, CD8+ T cells and NK cells in the spleen",[1]; spleen,elevated
same,expression of IFN-γ and TNF-α in CD4+ T cells and CD8+ T cells,[1]; tumor,upregulation
same,TGI,B16F10 syngeneic model,75%
same,IC50,"HDAC8; Class I, mean ± SD of three",0.75 ± 0.07 µM
same,selectivity toward HDAC8,HDAC8; relative to HDAC1,more than 800 fold
same,EdU positive cells,MDA-MB-231 cells,decreased
same,general health of the mice,"MDA-MB-231 xenograft; MDA-MB-231 xenograft BALB/c-nu mice, 60 mg/kg/day",without adversely affecting the general health of the mice
same,TGI,"MDA-MB-231 xenograft; MDA-MB-231 xenograft, BALB/c-nu mice, 60 mg/kg/day oral gavage, 22 days",76%
same,IC50,HDAC11,> 10 µM
same,"toxicity in organs (heart, liver, spleen, lung, kidney), H&E staining",MC38 syngeneic model,low toxicity
same,TGI,"MC38 syngeneic model; C57BL/6J mice, SDFZ-8 60 mg/kg qd i.g., 14-day treatment",71%
same,IC50,HDAC10,> 10 µM
